These results are taken from patent US20230145868A1, “UREA INHIBITORS OF MICRO-RNA” (Board of Regents, The University of Texas System, priority 2020, published 2023).

The test system of test [1] is miR-10b. In words: Luciferase reporter assay of miR-10b inhibition, MCF7 cells. To be noted: Homo sapiens, MCF7, 48 h. It counts as cell-based. The text has this: (§1) To identify miR-10b inhibitors, a luciferase reporter system was designed with complementary oligonucleotides for miR-10b.This luciferase reporter would repress Renilla luciferase signal in the presence of a functional mature miR-10b. However, in the presence of a small molecule that can inhibit mature miR-10b expression or affect its downstream function, the luciferase expression is restored again.
(§2) The PsiCHECK™-2 luciferase reporter vector was acquired from Promega™, Complementary oligonucleotides for hsa-miR-10b were designed based on the mature miRNA sequence and obtained from Thermo Fisher Scientific. In the design of the microRNA target sequence, several base pairs were added to have two different restriction sites recognizable by the enzyme SgfI at one side, and PmeI on the other (present in the vector as well). In addition, the insert was designed with a restriction site for SacI enzyme in order to have an additional site to digest the vector when monitoring colonies for the presence/absence of the insert. The designed oligonucleotides were annealed as follows: Complementary strands were mixed at a 1:1 molar ratio in a micro centrifuge tube. The mixture was diluted to a final concentration of 1 pmol/μl with a buffer solution of 10 mM Tris, 1 mM EDTA, and 50 mM NaCl (pH 8.0). Mixes were incubated at 95° C. for 5 min, and then the heat was reduced gradually for 70 min, until reaching 4° C. The annealed oligonucleotides were digested along with the PsiCHECK™2 vector with SgfI and PmeI and ligated at the 3′-UTR (downstream) of the Renilla luciferase reporter gene in the PsiCHECK™-2vector. Insert sequences were further confirmed in two ways: enzymatic digestion and sequencing.
(§3) MCF7 cells were seeded 24 h prior to transfection in 96 well plates (2.0×10^4 cells/well). For testing the sensitivity of the assay, antagomiRs and pre-miRs against miR-10b were used at a final concentration of 100 nM. For testing small molecule miRNA inhibitors, the compounds of interest were added to a final concentration of 10 μM. The assay was done in MCF7 or MDA-MB-231 cells at approximately 60% confluence using Lipofectamine in Opti-Mem media with the final vector concentration of 250 ng/mL. All transfections were performed in triplicate for statistical analysis. The cells were incubated at 37° C. for 6 h, followed by replacement of the transfected media with fresh media. After 48 h incubation, the media was removed, and cells were lysed and assayed with a Dual Luciferase Assay Kit (Promega) using a Vi-Tech luminometer. The ratio of Renilla to firefly luciferase expression was calculated for each of the triplicates.
For orientation: In a reporter assay the amount or activity of a reporter protein is the signal.

The test system of test [2] is miR-10b. In words: Luciferase reporter assay of miR-10b inhibition, MDA-MB-231 cells. It counts as cell-based. The following applies: Homo sapiens, MDA-MB-231, 48 h.
Description: as §1, §2, §3

A further test deals with mature miR-10b. In words: RT-qPCR of mature miR-10b. It is filed as cell-based, human. The following applies: AGS gastric cell line; normalized to U6; vs DMSO. The procedure: (§4) Potential small molecule miRNA inhibitors were tested in MCF7 cells, a metastatic cell line (MM231) and an HCC cell line (HepG2) through RT-qPCR. Cells were seeded in 12-well plates 24 h before treatments at a confluence of 50-60%. They were treated at a concentration of 10 μM linifanib (positive control) or DMSO (negative control), and RNA was collected after 24 and 48 h. MicroRNA expression was tested using TaqMan microRNA assay (Applied Biosystems). The cDNA was synthesized using TaqMan Reverse Transcription Reagents kit (Applied Biosystems) and employed for quantitative RT-qPCR analysis together with TaqMan probes and SsoFastSupermix (Bio-rad). Primers and probes were purchased for hsa-miR-10b, hsa-pri-miR-10b, U6, and U48 snRNA that was used as an internal control.
(§5) To detect the levels of the precursor sequences, cDNA was synthesized using the SuperScript III cDNA kit (Invitrogen). Diluted cDNA was used for RT-qPCR analysis using iQ SYBR Green Supermix (Bio-Rad) with primers designed by in-house. Experiments were performed in triplicate; treated samples were compared to the DMSO-treated controls and normalized to the internal control. Relative expression levels were calculated using the 2-ΔCt method.
(Real-time PCR tracks product formation cycle by cycle.)

A further test relates to pre-miR-10b. As to the kind of experiment: RT-qPCR of precursor miR-10b. The following applies: AGS gastric cell line; normalized to U6; vs DMSO. It counts as cell-based, human. The procedure:
as §4, §5

[3] abbreviates: Table 3, MCF7, 10 μM compound, vs negative control (DMSO), mean of triplicate, read-out: n-fold increase in luciferase expression, Mean.
The mark [4] stands for this setting: Table 3, MCF7, 10 μM compound, vs negative control (DMSO), replicate #1, read-out: n-fold increase in luciferase expression, #1.
Setting [5] is: Table 3, MCF7, 10 μM compound, vs negative control (DMSO), replicate #2, read-out: n-fold increase in luciferase expression, #2.
Where [6] appears, read: Table 3, MCF7, 10 μM compound, vs negative control (DMSO), replicate #3, read-out: n-fold increase in luciferase expression, #3.
Setting [7] is: Table 6, MCF7, second biological replicant, 10 μM compound, mean of triplicate, read-out: n-fold increase in luciferase expression, Mean.
Setting [8] is: Table 6, MCF7, second biological replicant, 10 μM compound, replicate #1, read-out: n-fold increase in luciferase expression, #1.
Where [9] appears, read: Table 6, MCF7, second biological replicant, 10 μM compound, replicate #2, read-out: n-fold increase in luciferase expression, #2.
Setting [10] is: Table 6, MCF7, second biological replicant, 10 μM compound, replicate #3, read-out: n-fold increase in luciferase expression, #3.
[11] abbreviates: Table 5, MDA-MB-231, 10 μM compound, vs negative control (DMSO), mean of triplicate, read-out: n-fold increase in luciferase expression, Mean.
Where [12] appears, read: Table 5, MDA-MB-231, 10 μM compound, vs negative control (DMSO), replicate #1, read-out: n-fold increase in luciferase expression, #1.
The mark [13] stands for this setting: Table 5, MDA-MB-231, 10 μM compound, vs negative control (DMSO), replicate #2, read-out: n-fold increase in luciferase expression, #2.
[14] abbreviates: Table 5, MDA-MB-231, 10 μM compound, vs negative control (DMSO), replicate #3, read-out: n-fold increase in luciferase expression, #3.
Where [15] appears, read: Table 7, MDA-MB-231, second biological replicant, 10 μM compound, mean of triplicate, read-out: n-fold increase in luciferase expression, Mean.
[16] abbreviates: Table 7, MDA-MB-231, second biological replicant, 10 μM compound, replicate #1, read-out: n-fold increase in luciferase expression, #1.
[17] abbreviates: Table 7, MDA-MB-231, second biological replicant, 10 μM compound, replicate #2, read-out: n-fold increase in luciferase expression, #2.
The mark [18] stands for this setting: Table 7, MDA-MB-231, second biological replicant, 10 μM compound, replicate #3, read-out: n-fold increase in luciferase expression, #3.
[19] abbreviates: Table 4, MCF7, 10 μM compound, vs negative control (DMSO), mean of triplicate, read-out: n-fold increase in luciferase expression, Mean.
[20] abbreviates: Table 4, MCF7, 10 μM compound, vs negative control (DMSO), replicate #1, read-out: n-fold increase in luciferase expression, #1.
[21] abbreviates: Table 4, MCF7, 10 μM compound, vs negative control (DMSO), replicate #2, read-out: n-fold increase in luciferase expression, #2.
Setting [22] is: Table 4, MCF7, 10 μM compound, vs negative control (DMSO), replicate #3, read-out: n-fold increase in luciferase expression, #3.

In the case of `Cc1ccc(F)c(NC(=O)Nc2ccc(-c3cccc4[nH]ncc34)cc2)c1` [Example 3, 1-(4-(1H-indazol-4-yl)phenyl)-3-(2-fluoro-5-methylphenyl)urea], the fold induction at 10 µM in the test with miR-10b [1] (setting [3]) was determined as 0.26; with miR-10b [1] (setting [4]), 0.238; in the test on miR-10b [1] (setting [5]), 0.246; in the test with miR-10b [1] (setting [6]), 0.292; with miR-10b [1] (setting [7]), 0.18; with miR-10b [1] (setting [8]) it was 0.257. For the same compound, the fold induction at 10 µM in the test on miR-10b [1] (setting [9]) is 0.176; in the test on miR-10b [1] (setting [10]), 0.117; with miR-10b [2] (setting [11]), 0.46; in the test on miR-10b [2] (setting [12]) it was 0.423; in the test with miR-10b [2] (setting [13]), 0.643; in the test with miR-10b [2] (setting [14]), 0.312. In addition, the fold induction at 10 µM in the test with miR-10b [2] (setting [15]) stood at 0.17; in the test on miR-10b [2] (setting [16]) it was 0.193; in the test with miR-10b [2] (setting [17]), 0.149; in the test with miR-10b [2] (setting [18]), 0.163.
In the case of `Cc1ccc(F)c(NC(=O)Nc2ccc(-c3cnc(N)nc3)cc2)c1` [Example 5, 1-(4-(2-aminopyrimidin-5-yl)phenyl)-3-(2-fluoro-5-methylphenyl)urea], the fold induction at 10 µM with miR-10b [1] (setting [3]) is 2.86; in the test with miR-10b [1] (setting [4]), 1.99; in the test on miR-10b [1] (setting [5]) it was 1.49; with miR-10b [1] (setting [6]), 5.1; in the test on miR-10b [1] (setting [7]), 2.12; in the test with miR-10b [1] (setting [8]), 3.03. The fold induction at 10 µM with miR-10b [1] (setting [9]) came out at 1.73; with miR-10b [1] (setting [10]), 1.59; with miR-10b [2] (setting [11]) it was 1.04; with miR-10b [2] (setting [12]), 1.13; in the test on miR-10b [2] (setting [13]) it was 1.01; with miR-10b [2] (setting [14]), 0.99. Moreover, the fold induction at 10 µM in the test on miR-10b [2] (setting [15]) stood at 1.3; in the test with miR-10b [2] (setting [16]), 0.26; with miR-10b [2] (setting [17]) it was 1.57; with miR-10b [2] (setting [18]), 2.06. The “level of mature miR-10b” value with mature miR-10b is given as “reduce the level of mature miR-10b”. Further, the “expression of pre-miR-10b” value in the test with pre-miR-10b was “increased expression of pre-miR-10b”.
Consider `Cc1ccc(F)c(NC(=O)Nc2ccc(-c3cccc4c3NC(=O)C4)cc2)c1` [Example 7, 1-(2-fluoro-5-methylphenyl)-3-(4-(2-oxoindolin-7-yl)phenyl)urea], for which the fold induction at 10 µM in the test with miR-10b [1] (setting [19]) was 2.41; in the test on miR-10b [1] (setting [20]) it was 1.34; in the test with miR-10b [1] (setting [21]), 5.06; in the test with miR-10b [1] (setting [22]), 0.822; in the test with miR-10b [1] (setting [7]), 1.25; in the test with miR-10b [1] (setting [8]) it was 1.86. The fold induction at 10 µM was found to be 0.957 in the test with miR-10b [1] (setting [9]); 0.935 with miR-10b [1] (setting [10]); 1.05 in the test with miR-10b [2] (setting [11]); 1.01 in the test with miR-10b [2] (setting [12]); 1.09 in the test with miR-10b [2] (setting [13]); 1.05 in the test on miR-10b [2] (setting [14]). Besides, the fold induction at 10 µM came to 1.19 in the test with miR-10b [2] (setting [15]), 1.16 in the test with miR-10b [2] (setting [16]), 1.31 in the test on miR-10b [2] (setting [17]) and 1.11 in the test on miR-10b [2] (setting [18]).
Consider `Cc1ccc(F)c(NC(=O)Nc2ccc(-c3ccccn3)cc2)c1` [Example 8, 1-(2-fluoro-5-methylphenyl)-3-(4-(pyridin-2-yl)phenyl)urea], for which the fold induction at 10 µM with miR-10b [1] (setting [19]) stood at 3.92; in the test with miR-10b [1] (setting [20]), 4.6; in the test with miR-10b [1] (setting [21]) it was 6.07; with miR-10b [1] (setting [22]), 1.08; in the test with miR-10b [1] (setting [7]), 1.24; in the test on miR-10b [1] (setting [8]), 1.82. In addition, the fold induction at 10 µM came to 1.04 in the test on miR-10b [1] (setting [9]); 0.857 in the test on miR-10b [1] (setting [10]); 0.78 in the test on miR-10b [2] (setting [11]); 0.566 in the test with miR-10b [2] (setting [12]); 0.991 in the test on miR-10b [2] (setting [13]); 0.793 in the test with miR-10b [2] (setting [14]). The fold induction at 10 µM in the test on miR-10b [2] (setting [15]) was determined as 1.15; with miR-10b [2] (setting [16]), 1.39; in the test on miR-10b [2] (setting [17]) it was 1; with miR-10b [2] (setting [18]) it was 1.05.
Take `Nc1n[nH]c2cccc(-c3ccc(NC(=O)Nc4ccncc4)cc3)c12` [Example 9, 1-(4-(3-amino-1H-indazol-4-yl)phenyl)-3-(pyridin-4-yl)urea]: the fold induction at 10 µM in the test on miR-10b [1] (setting [19]) came out at 2.11; with miR-10b [1] (setting [20]), 0.94; with miR-10b [1] (setting [21]) it was 4.2; with miR-10b [1] (setting [22]), 1.2; in the test with miR-10b [1] (setting [7]), 1.29; in the test on miR-10b [1] (setting [8]), 2.17. The fold induction at 10 µM with miR-10b [1] (setting [9]) came to 0.859; in the test with miR-10b [1] (setting [10]), 0.84; with miR-10b [2] (setting [11]) it was 1.41; in the test with miR-10b [2] (setting [12]), 1.14; with miR-10b [2] (setting [13]), 2.05; with miR-10b [2] (setting [14]), 1.05. Besides, the fold induction at 10 µM amounted to 1.56 with miR-10b [2] (setting [15]), 1.39 in the test with miR-10b [2] (setting [16]), 1.61 in the test with miR-10b [2] (setting [17]) and 1.67 with miR-10b [2] (setting [18]).
